Assay results from paper PMC2943038 (Chemical communications (Cambridge, England), 2010).
Read-outs that look alike come from different tables or passages of the source.

Legend:
PAD4 [1] = target: T1, PAD4 (Homo sapiens, UniProt Q9UM07); assay: PAD4 inhibition/inactivation, residual activity measured with BAEE; assay type: biochemical
PAD2 [2] = target: T2, PAD2 (Homo sapiens, UniProt Q9Y2J8); conditions: PAD4 over PAD2, relative values of kinact/KI
PAD2 [3] = target: T2, PAD2; assay: biochemical
PAD4 [4] = target: T1, PAD4; assay: fluopol-ABPP HTS
HL-60 granulocytes = assay: histone H3 citrullination Western blot in HL-60 granulocytes; assay type: cell-based; conditions: anti-citrulline histone H3 Western blot, 1, 10, or 100 nM, dose dependent
MCF-7 cells = assay: histone H3 citrullination Western blot in MCF-7 cells; assay type: cell-based; conditions: MCF7 cells; anti-citrulline histone H3 Western blot; 1, 10, or 100 nM, dose dependent
PAD4 [5] = target: T1, PAD4; assay: gel-based ABPP secondary screen
PAD3 = target: T3, PAD3 (Homo sapiens, UniProt Q9ULW8); assay: biochemical
T3 sequence (Q9ULW8 1-664): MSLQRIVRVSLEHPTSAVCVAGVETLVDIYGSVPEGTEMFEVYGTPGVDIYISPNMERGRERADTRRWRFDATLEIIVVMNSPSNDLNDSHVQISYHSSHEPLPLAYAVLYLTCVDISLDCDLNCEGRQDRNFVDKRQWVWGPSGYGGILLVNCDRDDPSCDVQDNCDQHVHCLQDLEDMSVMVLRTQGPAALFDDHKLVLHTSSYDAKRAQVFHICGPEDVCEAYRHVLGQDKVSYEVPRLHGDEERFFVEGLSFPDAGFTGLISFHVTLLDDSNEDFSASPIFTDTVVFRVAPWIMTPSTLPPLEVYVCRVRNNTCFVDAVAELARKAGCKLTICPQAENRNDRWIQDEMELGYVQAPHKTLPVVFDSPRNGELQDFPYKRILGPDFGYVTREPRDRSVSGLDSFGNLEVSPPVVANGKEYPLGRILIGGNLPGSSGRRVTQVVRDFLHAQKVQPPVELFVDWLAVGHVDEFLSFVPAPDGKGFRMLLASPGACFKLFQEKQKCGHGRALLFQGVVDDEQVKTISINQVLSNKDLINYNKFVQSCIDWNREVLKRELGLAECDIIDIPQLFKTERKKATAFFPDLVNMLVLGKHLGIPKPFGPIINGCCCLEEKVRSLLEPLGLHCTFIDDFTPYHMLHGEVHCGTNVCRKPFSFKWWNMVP

PAD1 = target: T4, PAD1 (Homo sapiens, UniProt Q9ULC6); assay: PAD1 inhibition/inactivation, residual activity measured with BAEE
T4 sequence (Q9ULC6 1-663): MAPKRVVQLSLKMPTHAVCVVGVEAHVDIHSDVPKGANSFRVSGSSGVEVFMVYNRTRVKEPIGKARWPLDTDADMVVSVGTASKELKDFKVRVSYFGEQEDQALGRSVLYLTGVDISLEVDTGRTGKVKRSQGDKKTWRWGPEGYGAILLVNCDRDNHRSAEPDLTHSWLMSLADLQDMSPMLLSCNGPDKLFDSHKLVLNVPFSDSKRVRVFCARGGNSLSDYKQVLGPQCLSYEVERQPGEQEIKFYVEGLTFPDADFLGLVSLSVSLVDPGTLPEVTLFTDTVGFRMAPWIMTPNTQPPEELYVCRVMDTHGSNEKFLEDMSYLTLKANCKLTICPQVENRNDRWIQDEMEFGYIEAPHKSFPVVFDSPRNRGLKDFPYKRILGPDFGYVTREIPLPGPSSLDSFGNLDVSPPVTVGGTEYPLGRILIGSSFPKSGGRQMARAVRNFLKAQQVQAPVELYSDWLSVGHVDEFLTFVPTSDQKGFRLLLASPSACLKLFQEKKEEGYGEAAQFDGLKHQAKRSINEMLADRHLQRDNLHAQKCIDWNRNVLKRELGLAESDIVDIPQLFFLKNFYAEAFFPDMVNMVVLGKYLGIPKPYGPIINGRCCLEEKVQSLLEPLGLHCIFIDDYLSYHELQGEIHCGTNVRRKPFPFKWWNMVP

T1 sequence (Q9UM07 whole entry): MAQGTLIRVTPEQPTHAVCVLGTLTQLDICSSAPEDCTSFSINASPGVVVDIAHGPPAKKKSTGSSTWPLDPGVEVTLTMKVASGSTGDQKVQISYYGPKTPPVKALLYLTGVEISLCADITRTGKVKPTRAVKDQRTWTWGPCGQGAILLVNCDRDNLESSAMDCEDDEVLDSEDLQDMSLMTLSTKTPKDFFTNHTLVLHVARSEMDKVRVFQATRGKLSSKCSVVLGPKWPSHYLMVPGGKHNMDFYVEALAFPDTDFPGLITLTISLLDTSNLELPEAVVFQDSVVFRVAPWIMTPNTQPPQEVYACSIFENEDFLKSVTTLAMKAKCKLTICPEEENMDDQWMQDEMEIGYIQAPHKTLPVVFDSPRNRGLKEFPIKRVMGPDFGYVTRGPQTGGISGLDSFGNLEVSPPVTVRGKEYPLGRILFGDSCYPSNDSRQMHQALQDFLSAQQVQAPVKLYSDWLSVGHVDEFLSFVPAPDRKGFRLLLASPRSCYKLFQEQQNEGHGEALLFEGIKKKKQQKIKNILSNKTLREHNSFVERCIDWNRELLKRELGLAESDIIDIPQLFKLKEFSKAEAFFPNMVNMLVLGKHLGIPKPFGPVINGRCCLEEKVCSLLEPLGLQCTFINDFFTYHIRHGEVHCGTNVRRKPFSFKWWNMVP
T2 sequence (Q9Y2J8 whole entry): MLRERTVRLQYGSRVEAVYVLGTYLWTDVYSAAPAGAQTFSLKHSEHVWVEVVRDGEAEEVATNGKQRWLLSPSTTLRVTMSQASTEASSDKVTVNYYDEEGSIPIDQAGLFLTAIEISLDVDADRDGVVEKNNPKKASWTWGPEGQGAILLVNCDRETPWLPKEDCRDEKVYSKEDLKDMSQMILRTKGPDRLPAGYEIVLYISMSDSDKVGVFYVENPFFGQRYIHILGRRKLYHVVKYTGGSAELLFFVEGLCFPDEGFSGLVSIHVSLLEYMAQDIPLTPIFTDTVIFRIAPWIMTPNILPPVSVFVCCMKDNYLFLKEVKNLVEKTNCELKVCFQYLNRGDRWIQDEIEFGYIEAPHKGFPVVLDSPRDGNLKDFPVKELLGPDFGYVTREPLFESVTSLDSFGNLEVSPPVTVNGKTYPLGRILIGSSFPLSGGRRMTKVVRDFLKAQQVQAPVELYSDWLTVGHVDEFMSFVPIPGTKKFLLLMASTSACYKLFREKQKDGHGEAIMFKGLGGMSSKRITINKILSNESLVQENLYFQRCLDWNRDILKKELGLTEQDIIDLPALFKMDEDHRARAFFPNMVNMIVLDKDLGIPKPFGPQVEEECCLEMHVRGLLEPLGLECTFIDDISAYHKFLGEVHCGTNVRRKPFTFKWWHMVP

SMILES	IC50 (PAD4 [1])	Ki (PAD4 [1])	PAD4 activity recovered after dialysis (reversibility) (PAD4 [1]; incubated with PAD4 for 30 min, dialyzed overnight (~20 h))	Fold selectivity (PAD2 [2])	Ki (PAD2 [3])	inhibition at 5 µM (PAD4 [4]; read-out: % Inhibition (library screen))	concentration that reduced levels of citrullinated histone H3 (HL-60 granulocytes)	concentration that reduced levels of citrullinated histone H3 (MCF-7 cells)	inhibition at 10 µM (PAD4 [5]; read-out: % Inhibition (Gel based ABPP))	Ki (PAD3)	Ki (PAD1)	IC50 (PAD4 [1]; read-out: IC50 for PAD4, Table 1, hits of the HTS)	% Inhibition (library screen) (PAD4 [4]; 5 μM compound final, 2 μM PAD4, 75 nM RFA, 300 min)	% Inhibition (Gel based ABPP) (PAD4 [5]; 10 μM final, inhibition of RFA labeling of PAD4)
COC1=C(N)C(=O)c2nc(-c3nc(C(=O)O)c(C)c(-c4ccc(OC)c(OC)c4O)c3N)ccc2C1=O [NIH6, streptonigrin]	1.87 ± 0.24 µM	8.5 ± 4.3 µM	no PAD4 activity was recovered	37 fold	17 ± 5.8 µM	92.5%	≤ 1 nM	≤ 1 nM	93.9%	49 ± 34 µM	11 ± 7 µM	–	–	–
Cc1ccc(S(=O)(=O)N[C@@H](Cc2ccccc2)C(=O)CCl)cc1 [NIH5, tosyl phenylalanyl chloromethyl ketone]	–	–	–	–	–	–	–	–	–	–	–	13 ± 2 µM	39.7%	12.9%
